Source: US6403594B1, “Benzopyran derivatives” (Recordati, S.A. Chemical and Pharmaceutical Company, priority 1999, dated 2002)

Columns and labels:
[1] = molecular target: T1, α1a-adrenoceptor (recombinant) (Homo sapiens, UniProt P35348); assay: Radioligand binding, cloned α1a-adrenoceptor ([3H]prazosin); settings: read-out: Affinity for recombinant α1a-adrenoceptor, cloned receptors (Ki)
T1 construct: expressed in transfected cells
T1 sequence (P35348 1-466): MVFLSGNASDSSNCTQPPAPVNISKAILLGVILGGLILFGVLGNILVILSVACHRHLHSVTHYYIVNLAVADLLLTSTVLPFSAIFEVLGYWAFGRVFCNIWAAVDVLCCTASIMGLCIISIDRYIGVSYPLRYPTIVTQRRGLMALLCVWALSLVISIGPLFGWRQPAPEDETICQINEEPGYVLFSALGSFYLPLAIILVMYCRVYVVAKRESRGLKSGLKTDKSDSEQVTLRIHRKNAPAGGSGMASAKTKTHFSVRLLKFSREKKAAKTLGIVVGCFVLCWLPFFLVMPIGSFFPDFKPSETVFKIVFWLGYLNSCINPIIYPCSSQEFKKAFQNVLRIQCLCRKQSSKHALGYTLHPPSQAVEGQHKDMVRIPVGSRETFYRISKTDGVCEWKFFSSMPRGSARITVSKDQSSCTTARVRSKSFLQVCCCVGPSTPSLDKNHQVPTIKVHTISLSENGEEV

[2] = molecular target: T2, 5HT1A-serotoninergic receptor (Homo sapiens, UniProt P08908); assay: Radioligand binding, cloned 5-HT1A-serotoninergic receptor in HeLa membranes ([3H]8-OH-DPAT); parameters: expressed in transfected cells; host or cells: HeLa; settings: cloned human 5-HT1A receptor in HeLa membranes, mean Ki, read-out: Affinity for 5-HT1A receptor, cloned receptors (Ki)
T2 sequence (P08908 1-422): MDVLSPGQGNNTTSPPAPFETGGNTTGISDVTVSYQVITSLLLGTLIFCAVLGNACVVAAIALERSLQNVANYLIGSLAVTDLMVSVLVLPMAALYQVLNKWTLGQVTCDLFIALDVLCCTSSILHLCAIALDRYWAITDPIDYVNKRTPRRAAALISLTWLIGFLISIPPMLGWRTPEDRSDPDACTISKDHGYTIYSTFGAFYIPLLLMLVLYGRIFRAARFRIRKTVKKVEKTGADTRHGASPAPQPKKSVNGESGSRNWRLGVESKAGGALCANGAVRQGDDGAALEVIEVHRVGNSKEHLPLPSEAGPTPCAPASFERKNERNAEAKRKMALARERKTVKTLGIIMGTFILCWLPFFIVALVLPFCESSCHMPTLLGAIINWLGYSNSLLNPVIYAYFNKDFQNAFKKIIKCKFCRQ

[3] = molecular target: T3, α1L adrenoceptor (Oryctolagus cuniculus, UniProt O02824); assay: Functional antagonism of noradrenaline-induced contractions of rabbit aorta pretreated with chloroethylclonidine; type: biochemical; settings: NA-induced contractions of rabbit aorta pretreated with chloroethylclonidine
T3 sequence (O02824 1-466): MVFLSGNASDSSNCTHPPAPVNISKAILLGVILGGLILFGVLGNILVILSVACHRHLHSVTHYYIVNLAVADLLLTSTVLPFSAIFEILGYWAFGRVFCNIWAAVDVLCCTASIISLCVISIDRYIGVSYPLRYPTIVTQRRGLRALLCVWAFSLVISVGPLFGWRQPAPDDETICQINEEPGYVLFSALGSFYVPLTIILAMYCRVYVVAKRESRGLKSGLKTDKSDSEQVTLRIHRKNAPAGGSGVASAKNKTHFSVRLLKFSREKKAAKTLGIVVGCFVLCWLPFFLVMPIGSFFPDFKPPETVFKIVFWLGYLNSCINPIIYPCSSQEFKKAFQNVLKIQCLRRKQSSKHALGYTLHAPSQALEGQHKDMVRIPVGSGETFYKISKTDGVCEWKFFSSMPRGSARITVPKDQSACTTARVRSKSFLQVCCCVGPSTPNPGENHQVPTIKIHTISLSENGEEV
Protocol: Adult male New Zealand rabbits were sacrificed by cervical dislocation. The aorta was removed, placed in Krebs-Henseleit buffer and dissected free of adhering tissue. […] Desmethylimipramine (0.1 μm) and corticosterone (1 μM) to block neuronal and extraneuronal uptake of NA, (±)-propranol (1 μM) to block β adrenoceptors and yohimbine (0.1 μM) to block α2 adrenoceptors, were added to the buffer.
The preparations were allowed to equilibrate for 60 minutes and then primed every thirty minutes with 10 μM NA for three times. The aortic rings were then incubated with the alkylating agent chloroethylclonidine (5×10^−5 M) for 30 minutes and then washed extensively three times (in 0.5 hours) before constructing the NA-concentration/response curve. After washout of NA and re-equilibration of the tissue (45 minutes), the drug to be tested was added and, after 30 minutes, a second NA-cumulative-concentration/response curve constructed.
Each antagonist concentration was tested using 2-3 aortic rings from different rabbits.
Dose ratios (i.e., the ratio between the concentrations of NA required to produce half-maximal response in the presence and in the absence of the test antagonist) were calculated for each concentration of the compounds. The logarithm of these dose ratio-1 was plotted against the logarithm of the compound concentrations (Schild plot) to evaluate the affinity constant Kb.
When only one or two concentrations of the test compounds were utilised, the apparent Kb value was calculated using the formula: Kb=[B]/(DOSE RATIO-1), where B is the antagonist concentration.

Row | Compound | Ki [1] | Ki [2] | Functional affinity for the α1L adrenoceptor subtype, pKb [3]
1 | CCOC(=O)c1oc2c(C(=O)NCCCN3CCN(c4cc(Cl)ccc4OC)CC3)cccc2c(=O)c1C [Example 4, 2-Ethoxycarbonyl-8-{3-[4-(5-chloro-2-methoxyphenyl)-1-piperazinyl]-propylcarbamoyl}-3-methyl-4-oxo-4H-1-benzopyran] | 0.21 nM | 15.2 nM | 8.47
2 | COc1ccc(Cl)cc1N1CCN(CCCNC(=O)c2cccc3c(=O)c(C)c(C(N)=O)oc23)CC1 [Example 1, 2-Carbamoyl-8-{3-[4-(5-chloro-2-methoxyphenyl)-1-piperazinyl]-propylcarbamoyl}-3-methyl-4-oxo-4H-1-benzopyran] | 2.4 nM | 17.2 nM | 8.27
